Earlier results in patent US20090202444A1 (priority 2009, published 2009).

Test system: bacteria

For `[Ag+]` [silver ion], the “silver ion concentration for inhibition of bacterial growth” value is listed as “below 5 ppm”.
